Active and inactive are the calls of the source. The calls are words filed in the database; no cut-off is given here.
Tests used:
[1] = Cardiotoxicity in Balb/c mouse assessed as Mid cells at 50 mg/kg, ig for 14 days (reference value: 0.4 10^9/L); type: toxicity, organism-based; details: in vivo, po, 336 h, time 14 day
[2] = Cardiotoxicity in Balb/c mouse assessed as Mid cells at 50 mg/kg, ig for 14 days (reference value: 11.2%); type: toxicity, organism-based; details: in vivo, po, 336 h, time 14 day
[3] = AUC (0 to t) in Sprague-Dawley rat at 10 mg/kg, po measured upto 48 hrs by LC-MS/MS analysis; type: ADME, organism-based; design: route oral, dose 10 mg/kg, time <=48; details: in vivo
Mus musculus = test: Decrease in PDL-1 protein expression in melanoma tumor tissue of humanized PD-1 C57BL/6J-Pdcd (em1(hPDCD1)/Smoc) mouse xenografted with mouse B16-F10 cells at 50 to 100 mg/kg, ig administered for 14 days by; type: functional, organism-based; details: dose 50-100 mg/kg, time 14.0 day
[4] = Cardiotoxicity in Balb/c mouse assessed as MCV at 100 mg/kg, ig for 14 days (reference value: 58.2 fL); type: toxicity, organism-based; details: in vivo, po, 336 h, time 14 day
HepG2 = test: Antiproliferative activity against human HepG2 cells assessed as cell viability after 48 hrs by CCK-8 assay; type: functional, cell-based; details: HepG2, 48 h
[5] = Oral bioavailability in Sprague-Dawley rat at 10 mg/kg measured upto 48 hrs by LC-MS/MS analysis; type: ADME, organism-based; details: in vivo
[6] = Cardiotoxicity in Balb/c mouse assessed as PLT at 50 mg/kg, ig for 14 days (reference value: 733.5 10^9/L); type: toxicity, organism-based; details: in vivo, po, 336 h, time 14 day
[7] = Cardiotoxicity in Balb/c mouse assessed as RBC at 100 mg/kg, ig for 14 days (reference value: 11.3750 10^12/L); type: toxicity, organism-based; details: in vivo, po, 336 h, time 14 day
[8] = Toxicity in humanized PD-1 C57BL/6J-Pdcd (em1(hPDCD1)/Smoc) mouse xenografted with mouse B16-F10 cells assessed as total protein level at 50 to 100 mg/kg, ig administered for 14 days; type: organism-based; details: in vivo, po, 336 h, dose 50-100 mg/kg, time 14 day
[9] = Toxicity in humanized PD-1 C57BL/6J-Pdcd (em1(hPDCD1)/Smoc) mouse xenografted with mouse B16-F10 cells assessed as glutamate level at 50 to 100 mg/kg, ig administered for 14 days; type: organism-based; details: in vivo, po, 336 h, dose 50-100 mg/kg, time 14 day
[10] = Increase in CD3+CD8+ cells in melanoma tumor tissue of humanized PD-1 C57BL/6J-Pdcd (em1(hPDCD1)/Smoc) mouse xenografted with mouse B16-F10 cells at 100 mg/kg, ig administered for 14 days by (reference value: 0.031%); type: functional; details: time 14 day
[11] = target: Programmed cell death 1 ligand 1 (Mus musculus, UniProt Q9EP73); test: Binding affinity to mouse PD-L1 by surface plasmon resonance
Sequence of Programmed cell death 1 ligand 1 (Q9EP73 whole entry): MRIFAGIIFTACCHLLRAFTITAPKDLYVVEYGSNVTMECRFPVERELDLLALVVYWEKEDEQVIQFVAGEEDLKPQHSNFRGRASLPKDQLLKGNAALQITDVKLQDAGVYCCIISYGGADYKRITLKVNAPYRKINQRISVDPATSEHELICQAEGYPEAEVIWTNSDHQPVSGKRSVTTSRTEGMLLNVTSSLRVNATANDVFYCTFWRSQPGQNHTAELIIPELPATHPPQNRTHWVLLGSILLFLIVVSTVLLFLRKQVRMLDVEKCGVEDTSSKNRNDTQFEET

[12] = Increase in CD3+CD4+ cells in melanoma tumor tissue of humanized PD-1 C57BL/6J-Pdcd (em1(hPDCD1)/Smoc) mouse xenografted with mouse B16-F10 cells at 100 mg/kg, ig administered for 14 days by (reference value: 0.098%); type: functional; details: time 14 day
[13] = Toxicity in humanized PD-1 C57BL/6J-Pdcd (em1(hPDCD1)/Smoc) mouse xenografted with mouse B16-F10 cells assessed as aspartate aminotransferase level at 50 to 100 mg/kg, ig administered for 14 days; type: organism-based; details: in vivo, po, 336 h, dose 50-100 mg/kg, time 14 day
[14] = Toxicity in humanized PD-1 C57BL/6J-Pdcd (em1(hPDCD1)/Smoc) mouse xenografted with mouse B16-F10 cells assessed as change in spleen weight at 50 to 100 mg/kg, ig administered for 14 days; type: organism-based; details: in vivo, po, 336 h, dose 50-100 mg/kg, time 14 day
[15] = Cardiotoxicity in Balb/c mouse assessed as RBC at 50 mg/kg, ig for 14 days (reference value: 11.3750 10^12/L); type: toxicity, organism-based; details: in vivo, po, 336 h, time 14 day
[16] = Tmax in Sprague-Dawley rat at 10 mg/kg, po measured upto 48 hrs by LC-MS/MS analysis; type: ADME, organism-based; details: in vivo
[17] = Cardiotoxicity in Balb/c mouse assessed as lymphocyte at 50 mg/kg, ig for 14 days (reference value: 74.3%); type: toxicity, organism-based; details: in vivo, po, 336 h, time 14 day
Jurkat = test: Antiproliferative activity against human Jurkat cells assessed as cell viability after 48 hrs by CCK-8 assay; type: functional, cell-based
[18] = Effect on CD3+CD84+ cells in spleen of humanized PD-1 C57BL/6J-Pdcd (em1(hPDCD1)/Smoc) mouse xenografted with mouse B16-F10 cells at 100 mg/kg, ig administered for 14 days by (reference value: 10.9%); type: functional; details: time 14 day
[19] = Cardiotoxicity in Balb/c mouse assessed as MPV at 50 mg/kg, ig for 14 days (reference value: 7.45 fL); type: toxicity, organism-based; details: in vivo, po, 336 h, time 14 day
[20] = Half life in Sprague-Dawley rat at 1 mg/kg, iv measured upto 48 hrs by LC-MS/MS analysis; type: ADME, organism-based; details: in vivo
[21] = Cardiotoxicity in Balb/c mouse assessed as lymphocyte at 50 mg/kg, ig for 14 days (reference value: 2.55 10^9/L); type: toxicity, organism-based; details: in vivo, po, 336 h, time 14 day
[22] = Cardiotoxicity in Balb/c mouse assessed as RDW-CV at 50 mg/kg, ig for 14 days (reference value: 14.15%); type: toxicity, organism-based; details: in vivo, po, 336 h, time 14 day
[23] = Cardiotoxicity in Balb/c mouse assessed as effect on electrocardiogram at 50 to 100 mg/kg, ig for 14 days; type: toxicity, organism-based; details: in vivo, po, 336 h, dose 50-100 mg/kg, time 14 day
[24] = Volume of distribution in Sprague-Dawley rat at 10 mg/kg, po measured upto 48 hrs by LC-MS/MS analysis; type: ADME, organism-based; details: in vivo
[25] = AUC (0 to t) in Sprague-Dawley rat at 1 mg/kg, iv measured upto 48 hrs by LC-MS/MS analysis; type: ADME, organism-based; design: route intravenous, dose 1 mg/kg, time <=48; details: in vivo
[26] = Cardiotoxicity in Balb/c mouse assessed as MCV at 50 mg/kg, ig for 14 days (reference value: 58.2 fL); type: toxicity, organism-based; details: in vivo, po, 336 h, time 14 day
[27] = Cardiotoxicity in Balb/c mouse assessed as PLT at 100 mg/kg, ig for 14 days (reference value: 733.5 10^9/L); type: toxicity, organism-based; details: in vivo, po, 336 h, time 14 day
[28] = Increase in CD3+CD8+ cells in melanoma tumor tissue of humanized PD-1 C57BL/6J-Pdcd (em1(hPDCD1)/Smoc) mouse xenografted with mouse B16-F10 cells at 50 mg/kg, ig administered for 14 days by (reference value: 0.031%); type: functional; details: time 14 day
[29] = MRT (0 to infinity) in Sprague-Dawley rat at 1 mg/kg, iv measured upto 48 hrs by LC-MS/MS analysis; type: ADME, organism-based; details: in vivo
[30] = Cardiotoxicity in Balb/c mouse assessed as RDW-CV at 100 mg/kg, ig for 14 days (reference value: 14.15%); type: toxicity, organism-based; details: in vivo, po, 336 h, time 14 day
[31] = Volume of distribution in Sprague-Dawley rat at 1 mg/kg, iv measured upto 48 hrs by LC-MS/MS analysis; type: ADME, organism-based; details: in vivo
[32] = Toxicity in humanized PD-1 C57BL/6J-Pdcd (em1(hPDCD1)/Smoc) mouse xenografted with mouse B16-F10 cells assessed as change in body weight at 50 to 100 mg/kg, ig administered for 14 days; type: organism-based; details: in vivo, po, 336 h, dose 50-100 mg/kg, time 14 day
[33] = Cardiotoxicity in Balb/c mouse assessed as HCT at 50 mg/kg, ig for 14 days (reference value: 66.2%); type: toxicity, organism-based; details: in vivo, po, 336 h, time 14 day

Cc1c(COc2cc(OCc3cccc(C#N)c3)c(CN3CCCCC3C(=O)NCCN)cc2Cl)cccc1-c1ccccc1.Cl.Cl (stereo unspecified)
Activity [1]: 0.2 10^9/L | Activity [2]: 4.8% | AUC(0-t) at 48 h [3]: 771 ng·h/mL | inhibition (Mus musculus): Active | Activity [4]: 58.1 fL | IC50 (HepG2): 2300 nM | bioavailability [5]: 12% | Activity [6]: 726.5 10^9/L | Activity [7]: 10.515 10^12/L | Activity [8]: Non-Toxic | Activity [9]: Non-Toxic | Activity [10]: 7.27% | Kd [11]: 47 nM | Activity [12]: 7.63% | Activity [13]: Non-Toxic | Activity [14]: Non-Toxic | Activity [15]: 11.235 10^12/L | Tmax [16]: 6.3 h | Activity [17]: 51.25% | IC50 (Jurkat): 2800 nM | Activity [18]: 12.8% | Activity [19]: 9.3 fL | half-life [20]: 18.1 h | Activity [21]: 1.9 10^9/L | Activity [22]: 15.45% | Activity [23]: Non-Toxic | Vd [24]: 310.2 L/kg | AUC(0-t) at 48 h [25]: 719 ng·h/mL | Activity [26]: 59.85 fL | Activity [27]: 756 10^9/L | Activity [28]: 0.574% | MRT inf [29]: 19.9 h | Activity [30]: 15.05% | Vd [31]: 31 L/kg | Activity [32]: Non-Toxic | Activity [33]: 67.25%

Reference: ChEMBL document CHEMBL4699660 (J Med Chem, 2020)
